Where two headings read alike, the source gives them in different places.
Tests used:
in vitro [1] = conditions: African green monkey
[2] = target: full-length SARS-CoV-2 hemagglutinin (HA)-Nsp3 (Severe acute respiratory syndrome coronavirus 2, UniProt P0DTD1); assay: biochemical
[3] = Pharmacokinetics in male ICR mice (IV and PO)
[4] = Cytotoxicity in uninfected Vero E6 cells, CellTiter-Glo; conditions: African green monkey
Vero E6 cells = assay: as above
SARS-CoV-2 USA-WA1/2020 = assay: CPE assay, neutral red, Vero E6 cells with 2 μM CP-100356, USA-WA1/2020; type: cell-based; conditions: for Percent Cytopathic Effect (Neutral Red): USA-WA1/2020
in vitro [5] = conditions: African green monkey; remark: listed apart in the source
[6] = system: SARS-CoV-2 Omicron (B.1.1.529); assay: microbe, parasite or virus in culture; type: cell-based; conditions: Severe acute respiratory syndrome coronavirus 2; Omicron (B1.1.529), Caco-2
[7] = system: SARS-CoV-2 Delta (B.1.617.2); assay: microbe, parasite or virus in culture; type: cell-based; conditions: Severe acute respiratory syndrome coronavirus 2; Delta (B1.617.2), Caco-2
[8] = male, ICR (CD-1), mouse, plasma, iv, 3 mg/kg

Molecule C[C@@H](NC(=O)c1ccccc1CCC(=O)NNC(=O)CCl)c1cccc2ccccc12 [Compound 9, (R)-2-(3-(2-(2-chloroacetyl)hydrazineyl)-3-oxopropyl)-N-(1-(naphthalen-1-yl)ethyl)benzamide] has a CC50 at 48 h (in vitro [1]; CC50) greater than 30 µM, a viability at 48 h, 2.08 µM (in vitro [1]; cytotoxicity, %cell viability) of 102% and a viability at 48 h, 8.33 µM (in vitro [1]; cytotoxicity, %cell viability) of 99.1%. For the same molecule, the viability at 48 h, 16.65 µM (in vitro [1]; cytotoxicity, %cell viability) was 91.4%.

For COC(=O)/C=C/C(=O)NNC(=O)CCc1ccccc1C(=O)N[C@H](C)c1cccc2ccccc12 [Compound 7, methyl(R,E)-4-(2-(3-(2-((1-(naphthalen-1 yl)ethyl)carbamoyl)phenyl)propanoyl)hydrazineyl)-4-oxobut-2-enoate], the inhibition at 0.003 µM ([2]; 0.003 uM, read-out: Percent Nsp3 inhibition) was -4%, the “Percent Nsp3 inhibition” value ([2]; 1.852 uM) was 84.0% and the inhibition at 1.852 µM ([2]; 1.852 uM, read-out: Percent Nsp3 inhibition) was 83.9%. For the same molecule, the “Percent Nsp3 inhibition” value ([2]; 50.000 uM) was 89.9%, the inhibition at 50 µM ([2]; 50.000 uM, read-out: Percent Nsp3 inhibition) was 90.7% and the “oral bioavailability / exposure following PO dosing” value ([3]; 10 mg/kg p.o., male ICR mice) was “not orally bioavailable”. For the same molecule, the AUC(0-inf) [3, 8] was 5 ng·h/mL, the AUC(0-t) [3, 8] was 4 ng·h/mL and the C0 [3, 8] was 63 ng/mL. For the same molecule, the Vd [3, 8] was 35.2 L/kg, the half-life [3, 8] was 3.6 min and the CC50 (Caco-2 cells; Caco-2, Delta rows) was greater than 10 µM. It also gave a CC50 (Caco-2 cells; Caco-2, Omicron rows) greater than 10 µM, a viability at 48 h, 2.08 µM ([4]; % cell viability, cytotoxicity, 2.08 uM) of 100% and a viability at 48 h, 8.33 µM ([4]; % cell viability, cytotoxicity, 8.33 uM) of 99.6%. The viability at 48 h, 16.65 µM ([4]; % cell viability, cytotoxicity, 16.65 uM) was 95.7%, the CC50 at 48 h ([4]; CC50, uninfected Vero E6 cells) was greater than 30 µM and the “% cell viability, cytotoxicity” value (Vero E6 cells; 2.08 uM) was 98.575%. The “% cell viability, cytotoxicity” value (Vero E6 cells; 8.33 uM) was 99.545%, the “% cell viability, cytotoxicity” value (Vero E6 cells; 16.65 uM) was 90.390% and the “CC50 < 30 μM” value (Vero E6 cells; uninfected Vero E6 cells, Yes/No) was “No”. For the same molecule, the EC50 (SARS-CoV-2 USA-WA1/2020; Severe acute respiratory syndrome coronavirus 2, Vero C1008) was 0.068 µM, the “Percent Cytopathic Effect (Neutral Red)” value (SARS-CoV-2 USA-WA1/2020; 0.01 µM) was 90.5% and the “Percent Cytopathic Effect (Neutral Red)” value (SARS-CoV-2 USA-WA1/2020; 0.1 µM) was 41.8%. The “Percent Cytopathic Effect (Neutral Red)” value (SARS-CoV-2 USA-WA1/2020; 1 µM) was 46.4%, the “Percent Cytopathic Effect (Neutral Red)” value (SARS-CoV-2 USA-WA1/2020; 10 µM) was 13.5% and the CC50 (in vitro [5]) was greater than 10 µM. The cytotoxicity at 0.01 µM (in vitro [5]) was 6.3%, the cytotoxicity at 0.1 µM (in vitro [5]) was 1.1% and the cytotoxicity at 1 µM (in vitro [5]) was 3.3%. The cytotoxicity at 10 µM (in vitro [5]) was 27.4%, the cytotoxicity at 0.01 µM (in vitro [5]; Percent Cytotoxicity (Neutral Red), Vero E6, SARS2-733 (Delta set), 0.01 µM) was 11.8% and the cytotoxicity at 0.1 µM (in vitro [5]; Percent Cytotoxicity (Neutral Red), Vero E6, SARS2-733 (Delta set), 0.1 µM) was 7.1%. For the same molecule, the cytotoxicity at 1 µM (in vitro [5]; Percent Cytotoxicity (Neutral Red), Vero E6, SARS2-733 (Delta set), 1 µM) was 4.8%, the cytotoxicity at 10 µM (in vitro [5]; Percent Cytotoxicity (Neutral Red), Vero E6, SARS2-733 (Delta set), 10 µM) was 9.3% and the cytotoxicity at 0.01 µM (in vitro [5]; Percent Cytotoxicity (Neutral Red), Vero E6, SARS2-735, 0.01 µM) was 0%. The cytotoxicity at 0.1 µM (in vitro [5]; Percent Cytotoxicity (Neutral Red), Vero E6, SARS2-735, 0.1 µM) was 0%, the cytotoxicity at 1 µM (in vitro [5]; Percent Cytotoxicity (Neutral Red), Vero E6, SARS2-735, 1 µM) was 3.8% and the cytotoxicity at 10 µM (in vitro [5]; Percent Cytotoxicity (Neutral Red), Vero E6, SARS2-735, 10 µM) was 38.5%. It also gave an EC90 [6] of 2.4 µM and an EC90 [7] greater than 10 µM.
